# Measured values from US20240041830A1, “CIRCULATING BIOMARKERS OF RESPONSE TO PD-1/PD-L1 BLOCKADE AND GSK-3 INHIBITION” (Brown University, priority 2022, published 2024).
# What was measured:
# [1] = tested on: KM12C; experiment: microarray analysis; format: cell-based, human; conditions: 1 μM, 24 hours, vs untreated
# [2] = tested on: patient-derived CD8+ T cells; experiment: ex vivo cytokine profiling of supernatant (Luminex); format: cell-based, human; conditions: forty-eight hours (1 NM) vs DMSO
# Procedure: (§1) Human cytokine profiling. Human cell line culture supernatants were analyzed using an R&D systems Human Premixed Multi-Analyte Kit (R&D Systems, Inc., Minneapolis, MN, USA) and a Luminex 200 (RRID: SCR_018025) Instrument (LX200-XPON-RUO, Luminex Corporation, Austin, TX, USA) according to the manufacturer's instructions. Sample levels of TNF-α, 4-1BB/TNFRSF9/CD137, IL-8/CXCL8, Ferritin, IFN-β, IL-10, CCL2/JE/MCP-1, VEGF, CXCL13/BLC/BCA-1, IFN-γ, CCL20/MIP-3 α, CCL3/MIP-1 α, CCL22/MDC, CCL4/MIP-1 β, Fas Ligand/TNFSF6, IL-17/1L-17A, IL-2, BAFF/BLyS/TNFSF13B, GM-CSF, CXCLS/ENA-78, TRANCE/TNFSF11/RANK L, CXCL9/MIG, G-CSF, IFN-γ R1/CD119, VEGFR3/Flt-4, C-Reactive Protein/CRP, CXCL11/I-TAC, IL-21, CXCL14/BRAK, IL-6, Fas/TNFRSF6/CD95, TRAIL R3/TNFRSF10C, IL-4, CCL5/RANTES, PD-L1/137-H1, CCL7/MCP-3/MARC, Chitinase 3-like 1, CXCL10/IP-10/CRG-2, IL-1 μ/IL-1F2, IL-7, Prolactin, CCL8/MCP-2, TRAIL R2/TNFRSF10B, M-CSF, IL-15, Granzyme B, IFN-α, TREM-1, IL-12/1L-23 p40, TRAIL/TNFSF10, CCL11/Eotaxin, and 1L-18/1L-1F4. Quantitative analysis with 6 standards and a minimum of 50 counts per bead region was used with the Luminex to generate analyte values reported as picograms/milliliter (pg/mL). Sample concentrations less than the lower limit of detection for each particular analyte were recoded as the lower limit value divided by 10. Sample concentrations above the upper limit of detection for a particular analyte were recoded as the upper limit of detection.
# The inventors collected peripheral blood during the patient's best response at fifteen months, corresponding with their lowest concentration of sIL-2 r in the peripheral blood, and isolated CD8+, non-ATLL T cells for further analysis. The inventors then treated these CD8+ cells ex vivo with elraglusib and assessed changes in cytokine, chemokine, and growth factor profiles in the cell culture supernatant using Luminex (LX200) technology and a custom cytokine panel described by Huntington, Louie, Zhou, & EI-Deiry, A high-throughput customized cytokinome screen of colon cancer cell responses to small-molecule oncology drugs. Oncotarget, 12, 1980-1991 (2021).
# Treatment of patient-derived CD8+ T cells with elraglusib increases granzyme B, TRAIL, and IFN-gamma secretion while decreasing VEGF, TNF-alpha, and CCL5/RANTES concentrations in cell culture supernatant in comparison to control groups. Patient-derived CD8+ cytotoxic T cells were treated with elraglusib for forty-eight hours (1 NM) or control (DMSO) and cytokine concentration was measured in cell culture supernatants. (Statistical significance was calculated with GraphPad Prism 9.3.1 using unpaired t tests and is denoted on each plot as follows: P>0.05=n.s., P≤0.05=*, P≤0.01=**, P≤0.001=***, and P≤0.0001=**** (N=3).
# [3] = tested on: 93T449 liposarcoma; experiment: Luminex cytokine profiling; format: cell-based; conditions: 0.5 μM, twenty-four hours
# Procedure: as §1
# (§2) Saos-2 osteosarcoma and 93T449 liposarcoma cell lines were pretreated at IC50 with elraglusib. The cells were harvested for Western blot analysis after 48 hours of treatment. Both cancer cell lines as well as TALL-104 T-cells and NK-92 NK cells were treated with 0.5 μM elraglusib for twenty-four hours and harvested for Luminex cytokine profiling.
# [4] = tested on: Saos-2 osteosarcoma; experiment: Luminex cytokine profiling; format: cell-based; conditions: 0.5 μM, twenty-four hours
# Procedure: as §1, §2
# [5] = tested on: GFP+ SW480 colorectal cancer cells; experiment: immune cell-killing co-culture assay (Example 1); format: cell-based, human
# Procedure: A panel of human colorectal cell lines was chosen to provide a varied mutational background (TP53, KRAS, BRAF, TRK, APC, PIK3CA). Cells were treated with elraglusib at doses up to 50 μM for seventy-two hours to determine IC10, IC30, IC50, and IC70. Cytokine, chemokine, and growth factor levels were analyzed in the tumor cell culture supernatants after treatment at IC10, IC30, IC50, and IC70 for forty-eight hours using a Luminex 200 multiplexing instrument. Co-culture experiments were conducted with GFP+ SW480 colorectal cancer cells and either NK-92 natural killer cells or TALL-104 T cells at various effector/target ratios in a 48-well plate, in the presence or absence of elraglusib.
# [6] = vs controls without drug treatment
smiles,measurement,setting,value
Cn1cc(C2=C(c3coc4ccc(F)cc34)C(=O)NC2=O)c2cc3c(cc21)OCO3 [elraglusib],AGGF1 Fold Change,[1],−1.6
same,BARD1 Fold Change,[1],−3.03
same,BCL9 Fold Change,[1],−1.55
same,BIK Fold Change,[1],1.51
same,BRAF Fold Change,[1],−2.05
same,BRCA1 Fold Change,[1],−1.71
same,BRD3 Fold Change,[1],−1.58
same,CCND2 Fold Change,[1],−1.58
same,CCNE1 Fold Change,[1],−1.57
same,CCNE2 Fold Change,[1],−2.64
same,CD109 Fold Change,[1],−2.09
same,CDC25C Fold Change,[1],−1.55
same,CDCA2 Fold Change,[1],−1.51
same,CDK1 Fold Change,[1],−2
same,CXCL1 Fold Change,[1],−1.53
same,E2F7 Fold Change,[1],−2.5
same,E2F8 Fold Change,[1],−3.16
same,ERBB2IP Fold Change,[1],−1.88
same,FZD3 Fold Change,[1],−1.76
same,GDF15 Fold Change,[1],−2.29
same,GZMA Fold Change,[1],1.53
same,IGF2BP2 Fold Change,[1],−1.51
same,IL6ST Fold Change,[1],−1.88
same,IL27RA Fold Change,[1],−1.72
same,IL32 Fold Change,[1],1.55
same,IRF2BP2 Fold Change,[1],−1.6
same,JMY Fold Change,[1],−2.03
same,LTBP1 Fold Change,[1],−2.24
same,MAP2K6 Fold Change,[1],−3.66
same,MAP3K1 Fold Change,[1],−1.92
same,MDM2 Fold Change,[1],−1.61
same,MET Fold Change,[1],−1.79
same,MKI67 Fold Change,[1],−1.53
same,MTBP Fold Change,[1],−1.58
same,MTDH Fold Change,[1],−1.74
same,NFKBIA Fold Change,[1],−2.51
same,NRP1 Fold Change,[1],−1.88
same,TAB3 Fold Change,[1],−1.63
same,TGFBR2 Fold Change,[1],−2.11
same,TGFBR3 Fold Change,[1],−3.72
same,TLR3 Fold Change,[1],−2.25
same,TNFRSF1B Fold Change,[1],−1.56
same,TNFRSF10A Fold Change,[1],−1.54
same,TNFRSF11A Fold Change,[1],−1.64
same,TNFRSF12A Fold Change,[1],1.53
same,TNIK Fold Change,[1],−1.59
same,TRAF5 Fold Change,[1],−1.52
same,TRAF6 Fold Change,[1],−1.57
same,TRAIP Fold Change,[1],1.53
same,TRIB1 Fold Change,[1],−2.37
same,CCL5/RANTES concentration in supernatant,[2],decreasing
same,IFN-gamma secretion,[2],increases
same,TNF-alpha concentration in supernatant,[2],decreasing
same,TRAIL secretion,[2],increases
same,VEGF concentration in supernatant,[2],decreasing
same,granzyme B secretion,[2],increases
same,TGF-α,[3],increase
same,TGF-α,[4],increase
same,IL-6,[4]; only Saos-2,increase
same,cell-killing after pre-treatment of the target tumor cells,"[5]; pre-treatment of tumor cells, but not effector immune cells",bolstered cell-killing
same,T cell (TALL-104) killing of colorectal cancer cells,[5]; [6],significant increase
same,natural killer (NK-92) cell killing of colorectal cancer cells,[5]; [6],significant increase
